Among the test systems are RPMI-8226 leukemia; UACC-257 melanoma; A549 NSCLC; MDA-N; MALME-3M melanoma; OVCAR-4 ovarian; SNB-19 CNS; SK-MEL-5 melanoma; LOX IMVI melanoma; U251 CNS; IGROV1 ovarian; A498 renal; MOLT-4 leukemia; HL-60(TB) leukemia; SF-539 CNS; MDA-MB-435; TK-10 renal; NCI-H460 lung; NCI/ADR-RES ovarian; HS 578T breast.
What all share (assay): growth of human tumour cells (NCI), 48 h

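Dose response: 5 concentrations. Exposure: 48 h. Format: 96-well plates. Endpoint: linear interpolation; highest concentration if not reached. TGI: concentration producing complete growth inhibition.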

`CCN1C[C@]2(C)CC[C@H](OC)C34C5C[C@@H]6[C@@H](OC)C[C@@](OC)(C5[C@H]6OCc5ccccc5)C(C13)[C@H](OC(C)=O)[C@@H]42` (stereo not given in full): the TGI in the test on RPMI-8226 leukemia, with UACC-257 melanoma, in the test on A549 NSCLC, in the test on MDA-N, in the test with MALME-3M melanoma and in the test with OVCAR-4 ovarian was greater than 100 µM throughout. Besides, the TGI with SNB-19 CNS, with SK-MEL-5 melanoma, with LOX IMVI melanoma, with U251 CNS, in the test on IGROV1 ovarian and in the test on A498 renal was greater than 100 µM in each case. Besides, the TGI with MOLT-4 leukemia, in the test with HL-60(TB) leukemia, with SF-539 CNS, with MDA-MB-435, with TK-10 renal and with NCI-H460 lung was greater than 100 µM each time. In addition, the TGI in the test on NCI/ADR-RES ovarian and with HS 578T breast was greater than 100 µM each time.
In the case of `CCOC(=O)/C=C\C(C#N)(C#N)N=Cc1ccsc1`, the TGI in the test with RPMI-8226 leukemia stood at 4.25 µM; with UACC-257 melanoma, 20.9 µM; with A549 NSCLC, 38.2 µM; in the test with MDA-N it was 24.5 µM; in the test with MALME-3M melanoma it was 5.35 µM; in the test on OVCAR-4 ovarian it was 19.2 µM. Further, the TGI in the test with SNB-19 CNS stood at 55.2 µM; with SK-MEL-5 melanoma, 35.4 µM; in the test with LOX IMVI melanoma, 15.1 µM; in the test on U251 CNS, 33.1 µM; with IGROV1 ovarian it was 28.2 µM; with A498 renal it was 33.5 µM. Moreover, the TGI was found to be 5.61 µM in the test with MOLT-4 leukemia; 5.14 µM in the test on HL-60(TB) leukemia; 12.9 µM with SF-539 CNS; 6.63 µM with MDA-MB-435; 4.63 µM in the test on TK-10 renal; 43.7 µM with NCI-H460 lung. Moreover, the TGI was 15.3 µM in the test on NCI/ADR-RES ovarian and 48.4 µM with HS 578T breast.
For `CSc1c(C#N)c(S)n(-c2ccc(Cl)cc2)c(=O)c1C#N`, the TGI with RPMI-8226 leukemia, in the test with UACC-257 melanoma, in the test with A549 NSCLC, with MDA-N, in the test with MALME-3M melanoma and in the test with OVCAR-4 ovarian was greater than 100 µM each time. Moreover, the TGI in the test on SNB-19 CNS, in the test with SK-MEL-5 melanoma, in the test on LOX IMVI melanoma, with U251 CNS, in the test with IGROV1 ovarian and in the test with A498 renal was greater than 100 µM each time. Further, the TGI in the test on MOLT-4 leukemia, with HL-60(TB) leukemia, with SF-539 CNS, in the test with MDA-MB-435, in the test on TK-10 renal and in the test on NCI-H460 lung was greater than 100 µM in each case. The TGI in the test on NCI/ADR-RES ovarian and in the test on HS 578T breast was greater than 100 µM in each case.
Turning to `Cc1ccc(S(=O)(=O)N2CC(CCN)c3ccccc32)cc1` (stereo not given), the TGI was greater than 63.6 µM in the test on RPMI-8226 leukemia; 33.9 µM with UACC-257 melanoma; 32.5 µM with A549 NSCLC; 11 µM in the test on MDA-N; 17.6 µM in the test with MALME-3M melanoma; greater than 100 µM in the test with OVCAR-4 ovarian. Moreover, the TGI was 31.3 µM in the test with SNB-19 CNS; 17.7 µM with SK-MEL-5 melanoma; 13.5 µM with LOX IMVI melanoma; 18.4 µM in the test on U251 CNS; greater than 53.4 µM in the test on IGROV1 ovarian; 40.6 µM in the test on A498 renal. In addition, the TGI in the test with MOLT-4 leukemia is greater than 83.9 µM; with HL-60(TB) leukemia it was greater than 100 µM; in the test on SF-539 CNS it was 8.59 µM; in the test on MDA-MB-435, 27.1 µM; in the test on TK-10 renal it was greater than 51.1 µM; in the test on NCI-H460 lung, greater than 64.8 µM. Besides, the TGI in the test on NCI/ADR-RES ovarian was 17 µM; in the test on HS 578T breast, 54.5 µM.
In the case of `C#CCNC(=O)NC(CCCCNC(=O)OCc1ccccc1)C(=O)OCc1ccccc1` (stereo not given), the TGI with RPMI-8226 leukemia is 70.9 µM; in the test on UACC-257 melanoma, 43.9 µM; in the test on A549 NSCLC, greater than 100 µM; in the test with MDA-N, greater than 68.3 µM; in the test with MALME-3M melanoma, 61 µM; with OVCAR-4 ovarian, greater than 100 µM. Also, the TGI with SNB-19 CNS is greater than 100 µM; in the test with SK-MEL-5 melanoma, 35.1 µM; in the test on LOX IMVI melanoma, greater than 88.4 µM; in the test on U251 CNS, greater than 100 µM; in the test with IGROV1 ovarian, greater than 100 µM; with A498 renal, 53.6 µM. Besides, the TGI was 85.7 µM in the test with MOLT-4 leukemia; 46.7 µM with HL-60(TB) leukemia; 71.9 µM in the test on SF-539 CNS; 57.1 µM in the test on MDA-MB-435; greater than 93 µM in the test with TK-10 renal; greater than 100 µM in the test on NCI-H460 lung. For the same compound, the TGI in the test with NCI/ADR-RES ovarian and with HS 578T breast was greater than 100 µM each time.
`COC1=C2CC(C)CC(OC)C(OC(=O)CCCN)C(C)/C=C(\C)C(OC(N)=O)C(OC)/C=C\C=C(/C)C(=O)NC(=CC1=O)C2=O` (stereo not given): the TGI in the test on RPMI-8226 leukemia was 32.5 µM; in the test with UACC-257 melanoma it was 17.7 µM; in the test with A549 NSCLC it was 55.1 µM; with MDA-N, 20.7 µM; with MALME-3M melanoma, 14.9 µM; in the test with OVCAR-4 ovarian, 20.4 µM. Further, the TGI turned out to be 24.9 µM in the test on SNB-19 CNS; 22.4 µM with SK-MEL-5 melanoma; 11.4 µM with LOX IMVI melanoma; 34.5 µM in the test on U251 CNS; 18.6 µM in the test with IGROV1 ovarian; 30.6 µM in the test with A498 renal. The TGI with MOLT-4 leukemia came to 3.81 µM; in the test on HL-60(TB) leukemia, 1.65 µM; with SF-539 CNS it was 16.9 µM; in the test with MDA-MB-435, 12.4 µM; in the test with TK-10 renal, 20.2 µM; with NCI-H460 lung, 36.5 µM. The TGI in the test on NCI/ADR-RES ovarian was found to be 43.7 µM; in the test with HS 578T breast, 40.7 µM.
As to `O=C(O)Cc1cccc2c(=O)c3cccc([N+](=O)[O-])c3[nH]c12`, the TGI in the test on RPMI-8226 leukemia was greater than 100 µM; in the test with UACC-257 melanoma, greater than 100 µM; in the test on A549 NSCLC, greater than 100 µM; in the test with MDA-N it was greater than 100 µM; in the test with MALME-3M melanoma, 97.6 µM; in the test on OVCAR-4 ovarian it was greater than 100 µM. Moreover, the TGI in the test with SNB-19 CNS, in the test on SK-MEL-5 melanoma, with LOX IMVI melanoma, in the test with U251 CNS, in the test with IGROV1 ovarian and in the test on A498 renal was greater than 100 µM in each case. Further, the TGI in the test on MOLT-4 leukemia was greater than 100 µM; in the test with HL-60(TB) leukemia, greater than 100 µM; with SF-539 CNS, 78.1 µM; in the test with MDA-MB-435 it was greater than 100 µM; with TK-10 renal it was greater than 100 µM; with NCI-H460 lung it was greater than 100 µM. Further, the TGI in the test with NCI/ADR-RES ovarian and in the test with HS 578T breast was greater than 100 µM each time.

These data come from PubChem BioAssay (NCI).
